Reference: US8697081B2, “Method of modulating neovascularization” (The Regents of the University of Michigan, priority 2008, dated 2014)

How the values were obtained:
Assay type in all cases: cell-based
[1] = test system: Human umbilical vein endothelial cells; assay: Protein synthesis in 3-D-embedded endothelial cells; conditions: growth factor-stimulated cells
Description: The laminar network of type A and type B lamins directly or indirectly binds chromatin and DNA, as well as a variety of inner nuclear membrane proteins functionally linked to nuclear architecture and mechanical integrity, chromatin organization, gene regulation, and DNA replication (Crisp and Burke, supra; Dechat et al., supra; Starr, supra).

[2] = test system: Human umbilical vein endothelial cells; assay: RNA synthesis (transcriptional activity) in cultured endothelial cells; conditions: for transcriptional activity: 2-D culture conditions; for VEGF/HGF induction of transcriptional activity (RNA synthesis) / mRNA and rRNA synthesis inhibited: 3-D culture; for mRNA and rRNA synthesis inhibited: low dose actinomysin D used to separate rRNA synthesis, data not shown
Description: At sites of tissue damage, inflammation or neoplasia, fibrinogen is converted into a 3-D meshwork of fibrin fibrils that serve as a structural support for endothelial cells undergoing neovascularization (Chun et al. 2006. Cell, 125: 577-591; Hiraoka et al. 1998. Cell, 95: 365-377; Schafer and Werner. 2008. Nat. Rev. Mol. Cell Biol., 9: 628-638; Zhou et al. 2008. Genes Dev., 22: 1231-1243). This process can be recapitulated in vitro by embedding serum-supplemented human endothelial cells within a 3-D fibrin gel in the presence of the pro-angiogenic factors, VEGF and HGF. Human umbilical vein endothelial cells were isolated from umbilical cords by perfusion of the umbilical vein with type 3 collagenase (Worthington, Lakewood, N.J.) and cultured in Medium-199 (Invitrogen, Carlsbad, Calif.) with 20% human serum and 50 μg/ml endothelial cell growth supplement (ECGS; BD Biosciences, Franklin Lakes, N.J.). For 3-D culture, endothelial cells were suspended in a solution of thrombin and aprotinin (Sigma, St. Louis, Mo.) and mixed 1:1 with a solution of 6 mg/ml fibrinogen (Calbiochem, Gibbstown, N.J.). Vasculogenesis was triggered by treatment with 100 ng/ml VEGF, 50 ng/ml HGF (Genentech, San Francisco, Calif.). Fibronectin fibrillogenesis was tracked in 3-D by co-culture with human fibronectin (Sigma) labeled with Alexa-594 (Invitrogen).
VEGF/HGF-induced chromatin dispersion, histone acetylation, and nuclear speckle decompaction observed in 3-D culture are consistent with global activation of transcription (Lamond and Spector, 2003. Nat. Rev. Mil. Cell Biol., 4: 605-612; Tang et al., supra). As such, RNA synthesis was quantified in cultured endothelial cells. […] Under 2-D culture conditions, transcriptional activity proceeded independently of pericellular ECM remodeling and was unaffected by FUD or GM6001.

human endothelial cells = assay: Fn matrix assembly by endothelial cells in 3-D fibrin gel, confocal laser microscopy
Method: Endothelial cells were isolated from human umbilical cord veins by collagenase digestion and cultured in Medium 199 (Gibco) containing 20% human serum, 50 μg/ml endothelial cell growth supplement (BD Biosciences), 100 U/ml penicillin, and 100 μg/ml streptomycin (Hiraoka et al. 1998. Cell, 95(3): 365-377). For 2-D/3-D culture, endothelial cell monolayers (no later than third passage) were suspended by mild trypsinization and dispersed within or plated atop fibrin (3 mg/ml) or collagen (2.2 mg/ml) gels (prepared as described in Hiraoka, supra, and Hotary et al. 2003. Cell, 114(1): 33-45), and stimulated with a cocktail of growth factors including 100 ng/ml human vascular endothelial growth factor (Genentech), 50 ng/ml human hepatocyte growth factor (Genentech), 10 ng/ml human TGFα (Biosource), 0.5 ng/ml TGFβ1 (R and D Systems), and 100 μg/ml heparin (Sigma). In selected experiments, endothelial cell spheroids were prepared and suspended in 3-D fibrin gels.
The effect of Fn matrix assembly, or lack thereof, on endothelial cell function during neovascularization was assessed. Human serum was depleted of Fn by gelatin-sepharose affinity chromatography (Amersham) and supplemented with either 20 μg/ml of human plasma Fn (Sigma) or FITC-labeled Fn. […]
(Chernousov et al. 1991. J. Biol. Chem., 266(17): 10851-10858; Tomasini-Johansson et al. 2001. J. Biol. Chem., 276(26): 23430-23439; Mao and Schwarzbauer. 2005. Matrix Biol., 24(6): 389-399; and Tomasini-Johansson et al. 2006. Matrix Biol., 25(5): 282-293). […] Cell number in 3-D cultures was determined by hemacytometry after dissolving gels with 2 mg/ml bacterial collagenase (Worthington) while the number of patent tubules was determined in randomly selected cross-sections. Fn matrix assembly and cell morphology were monitored by confocal laser microscopy. To examine cell migration, endothelial cells were embedded in a 100 μl fibrin gel for 2 hours, then placed within a 500 μl gel for 8 days in the presence of Del29, FUD, control IgG, or L8, after which migration from the inner gel was assessed. […]

Compound | protein synthesis [1] | transcriptional activity [2] | VEGF/HGF induction of transcriptional activity (RNA synthesis) [2] | mRNA and rRNA synthesis inhibited [2] | pericellular Fn matrix assembly (human endothelial cells; 2 days, 50 μM blebbistatin) | Fn matrix assembly (Fn polymerization) (human endothelial cells; growth factor cocktail, FUD or Del29 250 nM, L8 or 9D2 100 μg/ml, 70 kDa Fn fragment 75 μg/ml)
CNC(=O)[C@H](Cc1c[nH]c2ccccc12)NC(=O)[C@@H](CC(=O)NO)CC(C)C [GM6001] | no major changes | unaffected | attenuated significantly | ~50% |  | 
Cc1ccc2c(c1)C(=O)C1(O)CCN(c3ccccc3)C1=N2 (stereo not shown) [blebbistatin] |  |  |  |  | failed to assemble | 
FUD: 49-residue functional upstream domain of Streptococcus pyogenes F1 adhesion protein, SEQ ID NO: 10; fibronectin fibril assembly inhibitor (KDQSPLAGESGETEYITEVYGNQQNPVDIDKKLPNETGFSGNMVETEDT; Streptococcus pyogenes; Functional Upstream Domain (FUD) of F1 adhesion protein) | no major changes | unaffected | attenuated significantly | ~50% |  | attenuated
